Values belong to the compound of their own block, whether it stands above or below them.
Key:
Conditions in all cases: binder
CHK2 = CHK2 (Homo sapiens, UniProt O96017)
DYRK2 = molecular target: T1, DYRK2 (Homo sapiens, UniProt Q92630)
T1 sequence (Q92630 1-601): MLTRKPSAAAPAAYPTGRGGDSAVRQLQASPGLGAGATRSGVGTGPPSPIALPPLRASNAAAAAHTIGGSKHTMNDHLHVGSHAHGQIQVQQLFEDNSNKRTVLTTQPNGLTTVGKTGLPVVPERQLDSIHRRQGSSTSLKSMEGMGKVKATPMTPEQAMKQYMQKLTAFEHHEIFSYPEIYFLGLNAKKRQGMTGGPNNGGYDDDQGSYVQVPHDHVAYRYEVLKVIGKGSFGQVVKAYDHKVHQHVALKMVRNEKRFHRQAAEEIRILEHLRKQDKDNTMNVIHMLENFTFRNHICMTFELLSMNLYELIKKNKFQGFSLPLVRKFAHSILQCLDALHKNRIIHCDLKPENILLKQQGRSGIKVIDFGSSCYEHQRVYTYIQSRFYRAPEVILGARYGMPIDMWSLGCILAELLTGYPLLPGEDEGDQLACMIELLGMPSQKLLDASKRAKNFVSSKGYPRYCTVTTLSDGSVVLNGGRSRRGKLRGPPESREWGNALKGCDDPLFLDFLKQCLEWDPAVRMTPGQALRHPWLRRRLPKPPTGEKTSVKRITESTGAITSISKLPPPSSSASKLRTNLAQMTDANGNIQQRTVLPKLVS

PLK4 = molecular target: T2, PLK4 (Homo sapiens, UniProt O00444)
T2 sequence (O00444 1-970): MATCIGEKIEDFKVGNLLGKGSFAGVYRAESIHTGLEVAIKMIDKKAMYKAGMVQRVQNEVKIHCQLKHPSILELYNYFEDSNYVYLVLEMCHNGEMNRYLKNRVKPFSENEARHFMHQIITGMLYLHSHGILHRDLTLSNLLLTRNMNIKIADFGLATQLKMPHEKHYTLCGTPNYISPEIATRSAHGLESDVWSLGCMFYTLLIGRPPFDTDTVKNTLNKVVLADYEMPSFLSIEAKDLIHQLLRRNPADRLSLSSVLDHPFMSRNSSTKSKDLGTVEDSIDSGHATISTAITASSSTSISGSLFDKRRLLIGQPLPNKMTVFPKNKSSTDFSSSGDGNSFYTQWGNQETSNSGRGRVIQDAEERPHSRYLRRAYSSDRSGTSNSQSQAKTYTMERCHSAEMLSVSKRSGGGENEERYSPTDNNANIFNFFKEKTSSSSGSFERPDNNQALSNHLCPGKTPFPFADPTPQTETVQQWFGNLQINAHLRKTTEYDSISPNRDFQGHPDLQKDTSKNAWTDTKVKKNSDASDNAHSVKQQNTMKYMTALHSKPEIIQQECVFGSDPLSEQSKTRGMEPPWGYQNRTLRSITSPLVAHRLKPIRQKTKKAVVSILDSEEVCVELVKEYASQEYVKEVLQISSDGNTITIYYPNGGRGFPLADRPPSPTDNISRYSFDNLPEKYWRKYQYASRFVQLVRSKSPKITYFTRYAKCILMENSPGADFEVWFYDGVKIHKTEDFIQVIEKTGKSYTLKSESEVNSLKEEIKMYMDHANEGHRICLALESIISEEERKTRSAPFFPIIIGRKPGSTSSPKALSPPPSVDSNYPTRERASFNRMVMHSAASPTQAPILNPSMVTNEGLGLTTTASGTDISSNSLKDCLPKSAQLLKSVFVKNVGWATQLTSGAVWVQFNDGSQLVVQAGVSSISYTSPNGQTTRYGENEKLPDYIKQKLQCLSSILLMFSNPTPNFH

MAP3K5 = molecular target: T3, MAP3K5 (Homo sapiens, UniProt Q99683)
T3 sequence (Q99683 1-1374): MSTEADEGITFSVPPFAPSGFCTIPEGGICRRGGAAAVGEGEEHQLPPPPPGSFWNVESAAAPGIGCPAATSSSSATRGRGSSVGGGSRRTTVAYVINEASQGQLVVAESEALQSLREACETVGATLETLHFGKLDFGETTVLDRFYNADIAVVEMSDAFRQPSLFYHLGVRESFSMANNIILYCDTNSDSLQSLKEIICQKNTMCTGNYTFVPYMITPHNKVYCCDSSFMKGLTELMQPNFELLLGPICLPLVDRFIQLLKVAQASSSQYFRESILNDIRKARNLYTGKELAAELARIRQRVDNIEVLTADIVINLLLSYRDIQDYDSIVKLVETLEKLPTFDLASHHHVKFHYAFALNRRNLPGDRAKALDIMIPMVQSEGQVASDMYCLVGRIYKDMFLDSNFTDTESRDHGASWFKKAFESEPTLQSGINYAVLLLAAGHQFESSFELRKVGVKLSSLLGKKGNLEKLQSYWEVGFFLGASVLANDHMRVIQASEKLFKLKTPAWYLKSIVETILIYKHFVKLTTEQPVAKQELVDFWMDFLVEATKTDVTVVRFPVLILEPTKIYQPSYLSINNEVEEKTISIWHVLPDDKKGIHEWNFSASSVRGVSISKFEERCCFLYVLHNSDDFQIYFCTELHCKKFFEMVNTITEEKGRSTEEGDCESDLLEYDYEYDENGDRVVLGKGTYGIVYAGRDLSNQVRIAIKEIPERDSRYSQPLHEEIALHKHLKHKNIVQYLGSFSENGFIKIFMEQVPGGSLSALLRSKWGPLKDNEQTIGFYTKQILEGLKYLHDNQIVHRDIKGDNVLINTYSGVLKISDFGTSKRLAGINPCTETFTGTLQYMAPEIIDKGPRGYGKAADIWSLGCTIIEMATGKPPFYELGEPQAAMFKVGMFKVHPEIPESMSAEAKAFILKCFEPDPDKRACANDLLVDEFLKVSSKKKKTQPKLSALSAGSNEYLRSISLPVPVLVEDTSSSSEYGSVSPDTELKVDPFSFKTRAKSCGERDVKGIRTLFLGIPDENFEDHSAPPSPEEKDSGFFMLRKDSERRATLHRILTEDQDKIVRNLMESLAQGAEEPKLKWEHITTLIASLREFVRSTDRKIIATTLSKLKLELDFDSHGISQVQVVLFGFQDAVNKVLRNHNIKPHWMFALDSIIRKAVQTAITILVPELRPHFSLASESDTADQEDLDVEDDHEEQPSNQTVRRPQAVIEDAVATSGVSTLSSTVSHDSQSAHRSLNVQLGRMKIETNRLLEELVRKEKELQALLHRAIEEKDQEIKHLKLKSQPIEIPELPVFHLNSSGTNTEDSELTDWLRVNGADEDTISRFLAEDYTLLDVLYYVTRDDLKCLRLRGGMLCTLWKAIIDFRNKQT

Chain of CHK2 (O96017 whole entry): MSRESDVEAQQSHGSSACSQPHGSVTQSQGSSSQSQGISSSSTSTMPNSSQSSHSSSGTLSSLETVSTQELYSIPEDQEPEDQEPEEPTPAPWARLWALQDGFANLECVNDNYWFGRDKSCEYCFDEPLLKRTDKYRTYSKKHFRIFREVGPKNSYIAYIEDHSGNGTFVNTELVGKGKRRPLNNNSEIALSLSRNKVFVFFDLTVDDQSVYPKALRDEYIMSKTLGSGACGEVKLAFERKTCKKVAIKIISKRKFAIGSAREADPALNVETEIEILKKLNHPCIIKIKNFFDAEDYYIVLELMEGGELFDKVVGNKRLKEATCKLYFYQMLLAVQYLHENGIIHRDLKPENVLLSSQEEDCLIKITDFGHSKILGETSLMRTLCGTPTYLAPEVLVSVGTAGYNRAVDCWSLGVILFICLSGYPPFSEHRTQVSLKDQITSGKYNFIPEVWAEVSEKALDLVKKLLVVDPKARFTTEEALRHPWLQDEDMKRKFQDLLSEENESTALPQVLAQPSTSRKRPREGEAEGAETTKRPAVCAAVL

SMILES: Cc1cccc(-c2ccc(-c3cc4cnc(Nc5ccc(O)cc5)nc4n(CCCCN)c3=O)c(Cl)c2)n1 [compound 31, 8-(4-Aminobutyl)-6-(2-chloro-4-(6-methylpyridin-2-yl)phenyl)-2-((4-hydroxyphenyl)amino) pyrido[2,3-d]pyrimidin-7(8H)-one]
ΔTm 31 (CHK2): 11.2 °C | ΔTm 31 (DYRK2): -0.8 °C | ΔTm 31 (PLK4): 12.2 °C | ΔTm 31 (MAP3K5): 12.3 °C

SMILES: Cc1cccc(-c2ccc(-c3cc4cnc(NCCCN5CCCC5=O)nc4n(CCCCN)c3=O)c(Cl)c2)n1 [compound 27, MR30]
ΔTm MR30 (27) (CHK2): 2.5 °C | ΔTm MR30 (27) (DYRK2): -0.4 °C | ΔTm MR30 (27) (PLK4): 4.5 °C | ΔTm MR30 (27) (MAP3K5): 9.2 °C

SMILES: Cc1cccc(-c2ccc(-c3cc4cnc(NCCCN5CCNCC5)nc4n(CCCCN)c3=O)c(Cl)c2)n1 [compound 29, 8-(4-Aminobutyl)-6-(2-chloro-4-(6-methylpyridin-2-yl)phenyl)-2-((3-(piperazin-1-yl)propyl)amino)pyrido[2,3-d]pyrimidin-7(8H)-one]
ΔTm 29 (CHK2): 2.4 °C | ΔTm 29 (DYRK2): -0.2 °C | ΔTm 29 (PLK4): 4.2 °C | ΔTm 29 (MAP3K5): 9.6 °C

Second part, the compound after the results:

ΔTm 32 (CHK2): 11.0 °C | ΔTm 32 (DYRK2): -1.4 °C | ΔTm 32 (PLK4): 11.5 °C | ΔTm 32 (MAP3K5): 12.7 °C
SMILES: Cc1cccc(-c2ccc(-c3cc4cnc(Nc5ccc(C)c(O)c5)nc4n(CCCCN)c3=O)c(Cl)c2)n1 [compound 32, 8-(4-Aminobutyl)-6-(2-chloro-4-(6-methylpyridin-2-yl)phenyl)-2-((3-hydroxy-4-methylphenyl)amino)pyrido[2,3-d]pyrimidin-7(8H)-one]

ΔTm 28 (CHK2): 4.6 °C | ΔTm 28 (DYRK2): -0.7 °C | ΔTm 28 (PLK4): 8.0 °C | ΔTm 28 (MAP3K5): 12.2 °C
SMILES: Cc1cccc(-c2ccc(-c3cc4cnc(Nc5cc(C(F)(F)F)ccc5C)nc4n(CCCCN)c3=O)c(Cl)c2)n1 [compound 28, 8-(4-Aminobutyl)-6-(2-chloro-4-(6-methylpyridin-2-yl)phenyl)-2-((2-methyl-5-(trifluoromethyl)phenyl)amino)pyrido[2,3-d]pyrimidin-7(8H)-one]

ΔTm 30 (CHK2): 10.4 °C | ΔTm 30 (DYRK2): -1.1 °C | ΔTm 30 (PLK4): 12.6 °C | ΔTm 30 (MAP3K5): 13.1 °C
SMILES: Cc1cccc(-c2ccc(-c3cc4cnc(Nc5ccc(CCCO)cc5)nc4n(CCCCN)c3=O)c(Cl)c2)n1 [compound 30, 8-(4-Aminobutyl)-6-(2-chloro-4-(6-methylpyridin-2-yl)phenyl)-2-((4-(3-hydroxypropyl)phenyl)amino)pyrido[2,3-d]pyrimidin-7(8H)-one]

Reference: paper doi:10.1101/2023.11.24.568596v1 (biorxiv, 2023)
